Assay results from US20030143282A1, “Adenosine A3 receptor agonist” (priority 2002, published 2003).

Experiments:
[1] = tested on: B-16-F10 melanoma cells; experiment: [3H]-thymidine incorporation assay, tumor cell proliferation; format: cell-based, murine; details: B16-F10 cells; 0.1, 0.05 and 0.001 μM
Protocol: The B-16-F10 murine melanoma cell line was used in the in vitro and in vivo experiments. Cells were maintained in RPMI medium containing 10% FBS, penicillin and streptomycin. They were transferred twice weekly to a freshly prepared medium.
(§1) [^3H]-tymidine incorporation assay was used to evaluate cell growth. 1.5×10^4/ml B-16-F10 melanoma or 3×10^5/ml bone marrow cells were cultured in RPMI medium containing 10% FBS in 96 well microtiter plates. These cultures were incubated in the presence of MCM in a concentration of 50%. Since MCM was prepared in PBS, cultures containing tumor or bone marrow cells suspended in 50% PBS served as controls. During the last 18 hours of incubation, each well was pulsed with 1 μCi [^3H]-thymnidine. The cells were harvested and the [^3H]-thymnidine uptake was determined in an LKB liquid scintillation counter (LKB, Piscataway, N.J., USA).
(§2) Results were expressed as % of cell proliferation inhibition or stimulation, calculated according to the following formula: [formula]
where A represents the cell count of sample and B represents the cell count of the control. According to this calculation control values are 0% of inhibition or stimulation. […]
(§3) In this set of experiments, the question whether the effect of MCM+ADA on tumor or normal cells was mediated through A3AR was examined. […] [^3H]-thymidine uptake was determined as described above.

[2] = tested on: bone marrow cells; experiment: [3H]-thymidine incorporation assay, bone marrow cell proliferation; format: cell-based, C57BL/6J mice; details: 0.1, 0.05 and 0.001 μM
Protocol: Bone marrow cells were obtained from the femur of C57BL/6J mice. Cells were disaggregated by passing through a 25 G needle.
as §1, §2
where A represents the cell count of sample and B represents the cell count of the control. According to this calculation control values are 0% of inhibition or stimulation.
To eliminate adenosine from MCM preparations, adenosine deaminase (ADA) (Sigma, Chemical Co. St. Louis, Mo., USA) was added to the MCM for 1 hour. […]
as §3

[3] = Myeloprotective effect in mice treated with cyclophosphamide; format: in vivo; details: adenosine administered orally or intraperitoneally, after cyclophosphamide
Protocol: The myeloprotective effect of the various preparations were examined by injecting mice intraperitoneally with 50 mg/kg body weight of cyclophosphamide. Each group contained 10 mice and experiments were repeated at least 4 times. Adenosine, MCM (4 activity units) or MCM+ADA (4 activity units) were each orally administered 48 h and 72 h following the chemotherapy. After 120 h blood samples were withdrawn. The number of leukocytes and percent of neutrophils were evaluated.

[4] = tested on: B16-F10 melanoma cells; experiment: Melanoma lung metastatic foci growth in mice inoculated with B16-F10 cells; format: in vivo, C57BL/6J mice; details: adenosine 268 μg/kg body weight, administered orally or intraperitoneally
Protocol: The B-16-F10 murine melanoma cell line was used in the in vitro and in vivo experiments. Cells were maintained in RPMI medium containing 10% FBS, penicillin and streptomycin. They were transferred twice weekly to a freshly prepared medium. To examine the effect of the different preparations on tumor cell growth, B16-F10 (2.5×10^5) melanoma cells were intravenously inoculated to C57BL/6J mice. Each group contained 20 mice and experiments were repeated at least 4 times. Mice were treated orally according to the following protocol starting one day after tumor inoculation: 1. Adenosine—268 μg/kg body weight 2. MCM 4AU twice daily. 3. MCM+ADA, 4AU twice daily. 4. Vehicle—twice daily. An additional group of mice was treated daily intraperitoneally with adenosine (268 μg/kg body weight). Mice were sacrificed after fifteen days, lungs removed and black metastatic foci were counted using a Dissecting Microscope.

| Structure (SMILES) | effect of MRS-1220 by itself on proliferation [1] | effect of MRS-1220 by itself on proliferation [2] | chemoprotective effect [3] | inhibition of tumor growth [4] |
| --- | --- | --- | --- | --- |
| O=C(Cc1ccccc1)Nc1nc2ccc(Cl)cc2c2nc(-c3ccco3)nn12 [MRS-1220, 9-chloro-2-(2-furanyl)-5-[(phenylacetyl)amino] [1,2,4,]-triazolo[1,5-c] quinazoline] | no effect | no effect | – | – |
| Nc1ncnc2c1ncn2[C@@H]1O[C@H](CO)[C@@H](O)[C@H]1O [Adenosine, adenosine] | – | – | failed to inhibit tumor growth or act as a chemoprotective agent | failed to inhibit tumor growth |
